In one assay the target is T1, human A2B (Homo sapiens, UniProt P29275).
T1 construct: expressed in transfected cells; host or cells: HEK293
T1 sequence (P29275 1-332): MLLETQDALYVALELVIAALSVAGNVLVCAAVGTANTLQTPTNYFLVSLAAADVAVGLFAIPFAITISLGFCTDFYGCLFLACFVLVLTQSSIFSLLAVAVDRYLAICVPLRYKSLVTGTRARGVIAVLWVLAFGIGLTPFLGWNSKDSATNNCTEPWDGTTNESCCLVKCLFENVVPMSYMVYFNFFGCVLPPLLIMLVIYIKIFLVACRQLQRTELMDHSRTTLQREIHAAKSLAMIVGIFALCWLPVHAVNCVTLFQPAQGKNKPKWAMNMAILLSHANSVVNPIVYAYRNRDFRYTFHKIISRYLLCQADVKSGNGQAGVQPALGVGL
Put plainly: cAMP HTRF assay for Gs coupled receptor, agonist test. The note with it: agonist activity; HEK293 cells expressing recombinant human A2B; read-out: A2BAR EC50. The assay is classed as cell-based. As to the method: (§1) SPA ^35S-GTPγS experiments were conducted with Epics Therapeutics membrane preparations. cAMP HTRF assays were conducted with recombinant cell lines.
Dose response curves are performed in parallel with the reference compounds.
For agonist test (96 well): 12 μL of cells are mixed with 12 μL of the test compound at increasing concentrations and then incubated 30 min at room temperature. After addition of the lysis buffer containing cAMP-d2 and anti-cAMP cryptate detection reagents, plates are incubated 1 hour incubation at room temperature, and fluorescence ratios are measured according to the manufacturer specification, with the HTRF kit.
In general terms: In TR-FRET formats the signal depends on donor and acceptor labels being close together.

Assay [1] has as its target T2, human Adenosine A1 receptor (Homo sapiens, UniProt P30542).
T2 construct: host or cells: CHO-K1
T2 sequence (P30542 1-326): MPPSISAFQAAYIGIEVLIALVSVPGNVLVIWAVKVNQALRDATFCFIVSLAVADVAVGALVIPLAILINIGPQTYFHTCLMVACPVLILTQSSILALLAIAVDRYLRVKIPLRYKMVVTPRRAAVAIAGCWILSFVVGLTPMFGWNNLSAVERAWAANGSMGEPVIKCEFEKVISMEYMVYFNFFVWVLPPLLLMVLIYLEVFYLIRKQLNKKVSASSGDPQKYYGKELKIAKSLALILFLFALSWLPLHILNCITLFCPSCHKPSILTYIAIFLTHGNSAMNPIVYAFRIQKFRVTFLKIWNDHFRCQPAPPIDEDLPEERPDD
Put plainly: GTPγS scintillation proximity assay, agonist testing. The note with it: agonist activity; membrane extracts of CHO-K1 cells expressing recombinant human A1; read-out: A1AR EC50. The assay is classed as biochemical. As to the method:
as §1
• Assay buffer: 20 mM HEPES pH 7.4; 100 mM NaCl, 10 μg/mL saponin, MgCl2 at optimized concentration for the specific receptor. • Membranes: membrane extracts prepared from CHO-K1 cells expressing recombinant human Adenosine A1 receptor, thawed on ice, diluted in assay buffer and kept on ice. • GDP: diluted in assay buffer at the optimized concentration for the specific receptor Beads: PVT-WGA (Perkin Elmer, RPNQ001), diluted in assay buffer at 50 mg/mL (0.5 mg/10 μL) • GTPγ^35S: (Perkin Elmer, NEG030X), diluted in assay buffer for a final 0.1 nM assay concentration
Protocol for agonist testing: membranes are mixed with GDP (volume:volume). In parallel, GTPγ[^35S] is mixed with the beads (volume:volume) just before starting the reaction. The following reagents are successively added in the wells of an Optiplate (Perkin Elmer): 50 μL of test or reference ligand, 25 μL of the membranes:GDP mix, and 25 μL of the GTPγ[^35S]:beads mix. The plates are covered with a top seal, mixed on an orbital shaker for 2 min, and then incubated for 1 hour at room temperature. Then the plates are centrifuged for 10 min at 2000 rpm, incubated at room temperature and counted for 30 sec/well with a PerkinElmer TopCount™ reader. • Conditions for the GTPγS scintillation proximity assay are shown in Table 14.
Background: In a scintillation proximity assay essentially only radioactivity close to the scintillant gives light.

As a reminder, the EC50 is the concentration that produces a half-maximal response.

Take `N#Cc1c(SCCO)nc(N2CCCC2)c(C#N)c1-c1ccc(OCCO)cc1` [Compound 95]: the figures for the EC50 (on human A2B; in assay [1]) were 459 nM and 276 nM, respectively.
On the same counts, the results for `N#Cc1c(SCc2cccnc2)nc(N2CC(F)(F)C2)c(C#N)c1-c1ccc(OC2COC2)cc1` [Compound 272] are 311 nM and 22 nM.
On the same counts, the results for `N#Cc1c(SCCC(N)=O)nc(N2CCCC2)c(C#N)c1-c1ccc(OCCO)cc1` [Compound 96] are 97 nM and greater than 10000 nM.
Turning to `N#Cc1c(SCc2cccnc2)nc(N2CC(O)C2)c(C#N)c1-c1ccc(OCCOC(F)F)cc1` [Compound 265], the figures for the EC50 (on human A2B; in assay [1]) were greater than 10000 nM and 12.5 nM, respectively.
Consider `N#Cc1c(N)nc(SCc2cccc3[nH]ccc23)c(C#N)c1-c1ccc(OC2COC2)cc1` [Compound 22, 2-Amino-6-(1H-indol-4-ylmethylsulfanyl)-4-[4-(oxetan-3-yloxy)phenyl]pyridine-3,5-dicarbonitrile], for which the EC50 at human A2B is greater than 10000 nM; in assay [1], 3.5 nM.
On the same counts, the results for `N#Cc1c(SCc2cccnc2)nc(N2CC(O)C2)c(C#N)c1-c1ccc(OC(F)(F)CO)cc1` [Compound 261] are greater than 10000 nM and greater than 10000 nM.
Consider `N#Cc1c(N)nc(SCC2(F)COC2)c(C#N)c1-c1ccc(OC2COC2)cc1` [Compound 227], for which the values for the EC50 (on human A2B; in assay [1]) were greater than 10000 nM and 326 nM, respectively.
On the same counts, the results for `Cc1ccc(CSc2nc(N3CCC3)c(C#N)c(-c3ccc(OCCO)cc3)c2C#N)cn1` [Compound 69] are 26.3 nM and 201 nM.
On the same counts, the results for `N#Cc1c(N)nc(SCc2cccnn2)c(C#N)c1-c1ccc(OC2COC2)cc1` [Compound 234] are 2.02 nM and 1.22 nM.
On the same counts, the results for `Cc1nc(SCCC(F)(F)F)c(C#N)c(-c2ccc(OCCO)cc2)c1C#N` [Compound 48] are 42.6 nM and greater than 10000 nM.
In the case of `N#Cc1c(N)nc(SCc2cccnn2)c(C#N)c1-c1ccc(OCCO)cc1` [Compound 178], the EC50 stood at 0.06 nM on human A2B and 1.5 nM in assay [1].
On the same counts, the results for `N#Cc1c(N)nc(SCC2(F)COC2)c(C#N)c1-c1ccc(OCCO)cc1` [Compound 320] are greater than 10000 nM and 230 nM.
On the same counts, the results for `N#Cc1c(N)nc(SCC2CCOC2)c(C#N)c1-c1ccc(OC2CC(O)C2)cc1` (centres unmarked) [Compound 324] are greater than 10000 nM and 21.3 nM.
On the same counts, the results for `N#Cc1c(SCc2cccnc2)nc(N2CCCC2)c(C#N)c1-c1ccc(OC(F)(F)CO)cc1` [Compound 263] are greater than 10000 nM and greater than 10000 nM.
Regarding `COCCOc1ccc(-c2c(C#N)c(N)nc(SCc3ccc4cc[nH]c4c3)c2C#N)cc1` [Compound 44], the EC50 on human A2B was greater than 10000 nM; in assay [1], 34.3 nM.
On the same counts, the results for `N#Cc1c(N)nc(SCC2CCOC2)c(C#N)c1-c1ccc(OC2COC2)cc1` (centres unmarked) [Compound 24] are greater than 10000 nM and 9.8 nM.
On the same counts, the results for `N#Cc1c(N)nc(SCCC(F)(F)F)c(C#N)c1-c1ccc(O[C@H]2C[C@H](O)C2)cc1` [Compound 328] are greater than 10000 nM and greater than 10000 nM.
On the same counts, the results for `COCCOc1ccc(-c2c(C#N)c(N)nc(SCC3COC3)c2C#N)cc1` [Compound 123] are greater than 10000 nM and 72 nM.
Turning to `COCCOc1ccc(-c2c(C#N)c(N)nc(SCCO)c2C#N)cc1` [Compound 192], the results for the EC50 (at human A2B; in assay [1]) were greater than 10000 nM and 25 nM, respectively.
On the same counts, the results for `N#Cc1c(N)nc(SCC2(O)COC2)c(C#N)c1-c1ccc(OCCO)cc1` [Compound 313] are greater than 10000 nM and 55 nM.
On the same counts, the results for `COCCOc1ccc(-c2c(C#N)c(Sc3cccnc3)nc(N3CC(F)C3)c2C#N)cc1` [Compound 245] are greater than 10000 nM and 2.05 nM.
For `N#Cc1c(N)nc(SCC2COC2)c(C#N)c1-c1ccc(OC2COC2)cc1` [Compound 25], the EC50 on human A2B was greater than 10000 nM; in assay [1], 1.1 nM.

The values above are taken from patent US20250170112A1, “ADENOSINE LIGANDS FOR THE TREATMENT OF NEUROLOGICAL DISORDERS” (Lucy Therapeutics, Inc., priority 2022, published 2025).
